Results: patent US20260226047A1, “BENZIMIDAZOLE AND AZA-BENZIMIDAZOLE BASED IL-17A MODULATORS AND USES THEREOF” (DICE ALPHA, INC., priority 2023, published 2026)

Target: T1, IL-17A/A (Homo sapiens, UniProt Q16552)
T1 construct: purchased Genscript Z03228
T1 sequence (Q16552 24-155): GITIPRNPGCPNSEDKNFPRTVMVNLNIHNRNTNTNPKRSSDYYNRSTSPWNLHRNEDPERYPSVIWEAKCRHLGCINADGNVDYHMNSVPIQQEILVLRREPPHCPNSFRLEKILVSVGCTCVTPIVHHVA
Experiment: IL-17A/A HEK-Blue Cell Assay
Assay type: cell-based
Settings: IL-17A/A inhibition, HEK-Blue IL-17A reporter cell line, SEAP readout at A630, incubated for 20 hours
Description: Example 3: IL-17A/A HEK-Blue Cell Assay
The HEK-Blue IL-17A reporter cell line (Fisher #NC1408637) was used for cell-based IL-17A/A inhibition assays. Cells were grown and prepared for assays according to the manufacturer's instructions. This cell line consists of HEK 293 cells that were designed to expressed IL-17RA, IL-17RC, and the ActI adapter molecule, the combination of which, when stimulated by IL-17A/A activates a NFκB promoter and drives expression of a recombinant Secreted Alkaline Phosphatase (SEAP) gene protein. Media from the cells is then added to a development reagent (Quanti-Blue Substrate, Fisher #NC9711613), and read at A630.
Compounds were titrated in DMSO, with a top final compound concentration of 10 μM, 1 uM, or 0.3 μM, and added to the cells immediately before adding IL-17A/A (Genscript #Z03228). The cells, compound, and IL-17A/A were then incubated for 20 hours before media was removed for SEAP analysis. The resulting inhibition curve was then analyzed using Graphpad Prism 7.0, and IC50 values were determined using a 4-parameter nonlinear fit. DMSO was added to a universal final concentration of 0.1% to optimize background.

IC50 [nM] | SMILES
< 100 | CCn1nccc1C(=O)N[C@H](c1nc2c(F)c(C[C@H]3C[C@@H](C(F)(F)F)NC3=O)ccc2[nH]1)C(C1CC1)C1CC1 [Compound 40]
100 to 1000 | CCn1nccc1C(=O)N[C@H](c1nc2cc(CC3CC(C(F)(F)F)NC3=O)cc(F)c2[nH]1)C(C1CC1)C1CC1 (stereo partly shown) [Compound 41]
> 1000 | CCn1nccc1C(=O)N[C@H](c1nc2cc(CC3CC(C(F)(F)F)NC3=O)cc(F)c2[nH]1)C(C1CC1)C1CC1 (stereo partly shown) [Compound 42]
100 to 1000 | CCn1nccc1C(=O)N[C@H](c1nc2cc(CC3CCC(C(F)(F)F)NC3=O)ccc2[nH]1)C(C1CC1)C1CC1 (stereo partly shown) [Compound 43]
> 1000 | CCn1nccc1C(=O)N[C@H](c1nc2cc(CC3CCC(C(F)(F)F)NC3=O)ccc2[nH]1)C(C1CC1)C1CC1 (stereo partly shown) [Compound 44]
100 to 1000 | CCn1nccc1C(=O)N[C@H](c1nc2cc(CC3CCC(C(F)(F)F)NC3=O)ccc2[nH]1)C(C1CC1)C1CC1 (stereo partly shown) [Compound 45]
> 1000 | CCn1nccc1C(=O)N[C@H](c1nc2cc(CC3CCC(C(F)(F)F)NC3=O)ccc2[nH]1)C(C1CC1)C1CC1 (stereo partly shown) [Compound 46]
100 to 1000 | CCn1nccc1C(=O)N[C@H](c1nc2cc(CC3CCC(C(F)(F)F)NC3=O)cc(F)c2[nH]1)C(C1CC1)C1CC1 (stereo partly shown) [Compound 52]
100 to 1000 | CCn1nccc1C(=O)N[C@H](c1nc2cc(CC3CCC(C(F)(F)F)NC3=O)cc(F)c2[nH]1)C(C1CC1)C1CC1 (stereo partly shown) [Compound 53]
> 1000 | CCn1nccc1C(=O)N[C@H](c1nc2cc(CC3CCC(C(F)(F)F)NC3=O)cc(F)c2[nH]1)C(C1CC1)C1CC1 (stereo partly shown) [Compound 54]
> 1000 | CCn1nccc1C(=O)N[C@H](c1nc2cc(CC3CCC(C(F)(F)F)NC3=O)cc(F)c2[nH]1)C(C1CC1)C1CC1 (stereo partly shown) [Compound 55]
100 to 1000 | CCn1nccc1C(=O)N[C@H](c1nc2cc(CC3CCC(C(F)(F)F)NC3=O)cc(F)c2[nH]1)C(C1CC1)C1CC1 (stereo partly shown) [Compound 56]
100 to 1000 | CCn1nccc1C(=O)N[C@H](c1nc2cc(CC3CCNC3=O)cc(C#N)c2[nH]1)C1CCC(F)(F)CC1 (stereo partly shown) [Compound 57]
100 to 1000 | CC(C)n1nccc1C(=O)N[C@H](c1nc2ccc(C[C@H]3CCNC3=O)cc2[nH]1)C(C1CC1)C1CC1 [Compound 58]
100 to 1000 | Cn1nccc1C(=O)N[C@H](c1nc2ccc(C[C@H]3CCNC3=O)cc2[nH]1)C(C1CC1)C1CC1 [Compound 59]
< 100 | CCn1nccc1C(=O)N[C@H](c1nc2ccc(C[C@H]3CCNC3=O)cc2[nH]1)[C@H]1CC[C@H](C)CC1 [Compound 61]
> 1000 | CCn1nccc1C(=O)N[C@H](c1nc2ccc(C[C@H]3CCNC3=O)cc2[nH]1)[C@H](c1ccccc1Cl)C(C)C [Compound 62]
> 1000 | CC[C@@H](c1ccc(F)cc1)[C@H](NC(=O)c1ccnn1CC)c1nc2ccc(C[C@H]3CCNC3=O)cc2[nH]1 [Compound 63]
100 to 1000 | CCn1nccc1C(=O)N[C@H](c1nc2ccc(C[C@H]3CCNC3=O)cc2[nH]1)C(C1CCC1)C1CCC1 [Compound 64]
100 to 1000 | CC[C@@H](C1CCC1)[C@H](NC(=O)c1ccnn1CC)c1nc2ccc(C[C@H]3CCNC3=O)cc2[nH]1 [Compound 65]
100 to 1000 | CCn1nccc1C(=O)N[C@H](c1nc2ccc(C[C@H]3CCNC3=O)cc2[nH]1)[C@@H](C)[C@H]1CC[C@H](C)CC1 [Compound 66]
100 to 1000 | Cc1nonc1C(=O)N[C@H](c1nc2ccc(C[C@H]3CCNC3=O)cc2[nH]1)C1CCC(F)(F)CC1 [Compound 67]

IC50 [nM] | SMILES
> 1000 | O=C1N[C@H](C(F)(F)F)C[C@H]1Cc1ccc2nc([C@@H](NC(=O)C3(F)CC3)C(C3CC3)C3CC3)[nH]c2c1 [Compound 68]
100 to 1000 | O=C1N[C@H](C(F)(F)F)C[C@@H]1Cc1ccc2nc([C@@H](NC(=O)C3(F)CC3)C(C3CC3)C3CC3)[nH]c2c1 [Compound 69]
100 to 1000 | CCn1nccc1C(=O)N[C@H](c1nc2ccc(CC3CCC(C)NC3=O)cc2[nH]1)C(C1CC1)C1CC1 (stereo partly shown) [Compound 70]
100 to 1000 | CCn1nccc1C(=O)N[C@H](c1nc2ccc(CC3CC(C(F)(F)F)CNC3=O)cc2[nH]1)C(C1CC1)C1CC1 (stereo partly shown) [Compound 71]
100 to 1000 | CCn1nccc1C(=O)N[C@H](c1nc2ccc(CC3CC(C)NC3=O)cc2[nH]1)C(C1CC1)C1CC1 (stereo partly shown) [Compound 72]
100 to 1000 | CCn1nccc1C(=O)N[C@H](c1nc2ccc(CC3CC(F)(F)CNC3=O)cc2[nH]1)C(C1CC1)C1CC1 (stereo partly shown) [Compound 73]
< 100 | CCn1nccc1C(=O)N[C@H](c1nc2ccc(C[C@H]3CC(F)(F)CNC3=O)cc2[nH]1)C(C1CC1)C1CC1 [Compound 74]
100 to 1000 | CCn1nccc1C(=O)N[C@H](c1nc2ccc(C[C@@H]3CC(F)(F)CNC3=O)cc2[nH]1)C(C1CC1)C1CC1 [Compound 75]
100 to 1000 | CCn1nccc1C(=O)N[C@H](c1nc2ccc(CC3C(=O)NC4CC43)cc2[nH]1)C(C1CC1)C1CC1 (stereo partly shown) [Compound 76]
100 to 1000 | CCn1nccc1C(=O)N[C@H](c1nc2ccc(CC3C(=O)NCC3C(F)(F)F)cc2[nH]1)C(C1CC1)C1CC1 (stereo partly shown) [Compound 77]
> 1000 | CCn1nccc1C(=O)N[C@H](c1nc2ccc(C(COC)C3C[C@@H](C(F)(F)F)NC3=O)cc2[nH]1)C(C1CC1)C1CC1 (stereo partly shown) [Compound 78]
100 to 1000 | CCn1nccc1C(=O)N[C@H](c1nc2ccc(C(COC)C3C[C@@H](C(F)(F)F)NC3=O)cc2[nH]1)C(C1CC1)C1CC1 (stereo partly shown) [Compound 79]
100 to 1000 | CCn1nccc1C(=O)N[C@H](c1nc2ccc(C(COC)C3C[C@@H](C(F)(F)F)NC3=O)cc2[nH]1)C(C1CC1)C1CC1 (stereo partly shown) [Compound 80]
> 1000 | CCn1nccc1C(=O)N[C@H](c1nc2ccc(C(C)C3CCCNC3=O)cc2[nH]1)C(C1CC1)C1CC1 (stereo partly shown) [Compound 81]
100 to 1000 | CCn1nccc1C(=O)N[C@H](c1nc2ccc(C(C)C3CCCNC3=O)cc2[nH]1)C(C1CC1)C1CC1 (stereo partly shown) [Compound 82]
> 1000 | CCn1nccc1C(=O)N[C@H](c1nc2ccc(C(C)C3CCCNC3=O)cc2[nH]1)C(C1CC1)C1CC1 (stereo partly shown) [Compound 83]
100 to 1000 | CCn1nccc1C(=O)N[C@H](c1nc2ccc(C(C)C3CCCNC3=O)cc2[nH]1)C(C1CC1)C1CC1 (stereo partly shown) [Compound 84]
> 1000 | CCn1nccc1C(=O)N[C@H](c1nc2ccc(C(C)C3CCCNC3=O)cc2[nH]1)C(C1CC1)C1CC1 (stereo partly shown) [Compound 85]
> 1000 | CCn1nccc1C(=O)N[C@H](c1nc2ccc(C[C@H]3CCCNC3=O)cc2[nH]1)C1CCC(F)(F)CC1 [Compound 86]
> 1000 | CCn1nccc1C(=O)N[C@H](c1nc2ccc(C[C@H]3CCCNC3=O)cc2[nH]1)[C@H]1CC[C@H](C)CC1 [Compound 87]
> 1000 | CCn1nccc1C(=O)N[C@H](c1nc2ccc(CC3CCCNC3=O)cc2[nH]1)[C@H]1CC[C@H](C(F)(F)F)CC1 (stereo partly shown) [Compound 88]
